According to patent publication US11814364B2, “Pyridine N-oxide derivatives useful as factor XIa inhibitors” (Janssen Pharmaceutica NV, priority 2021, dated 2023):

What follows are compounds tested against human plasma kallikrein (Homo sapiens, UniProt P03952) (assay: Kallikrein inhibition FLINT assay with quenched AMC peptide substrate Z-Gly-Pro-Arg-AMC (end point EP or kinetic KIN reads)). Conditions: kinetic reads at 5 min intervals over 30 min; read-out: Kallikrein (KIN) IC50.
Type: biochemical
Method in brief: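 Enzyme and compound were preincubated 30 min before adding 50 μM AMC substrate in pH 7.5 Tris/NaCl/CaCl2/BSA/CHAPS buffer. AMC release was read at 30 min endpoint or every 5 min.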

human plasma kallikrein, sequence (P03952 391-638 limits assumed): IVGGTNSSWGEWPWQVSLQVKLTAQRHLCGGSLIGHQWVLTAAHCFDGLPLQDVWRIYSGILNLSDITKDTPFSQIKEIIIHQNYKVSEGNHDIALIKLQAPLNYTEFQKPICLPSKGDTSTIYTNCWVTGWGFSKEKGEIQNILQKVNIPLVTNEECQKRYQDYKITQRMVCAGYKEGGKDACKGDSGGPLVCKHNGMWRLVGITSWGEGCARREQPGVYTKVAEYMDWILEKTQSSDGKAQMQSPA
human plasma kallikrein, sequence (P03952 20-390 partner limits assumed): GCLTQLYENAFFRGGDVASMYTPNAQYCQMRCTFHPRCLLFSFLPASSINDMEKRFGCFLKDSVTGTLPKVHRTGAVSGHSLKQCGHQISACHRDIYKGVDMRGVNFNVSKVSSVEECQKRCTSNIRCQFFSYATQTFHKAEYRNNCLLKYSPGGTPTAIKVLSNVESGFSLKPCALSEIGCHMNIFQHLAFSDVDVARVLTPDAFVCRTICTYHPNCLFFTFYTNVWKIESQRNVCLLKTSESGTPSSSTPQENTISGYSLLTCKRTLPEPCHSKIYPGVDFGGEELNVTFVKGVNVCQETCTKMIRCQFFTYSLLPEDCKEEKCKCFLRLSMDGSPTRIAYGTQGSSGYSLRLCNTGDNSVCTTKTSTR

Row | IC50 [nM] | Compound
1 | 21.6 | Nc1ccc(-c2cnn(C(CC3CC3)c3ccc(-c4c(-n5cnnn5)ccc(Cl)c4F)c[n+]3[O-])c2)c(Cl)n1 (single isomer, unassigned) [Example P178]
2 | 158 | [O-][n+]1cc(-c2c(-n3cnnn3)ccc(Cl)c2F)ccc1C(Cc1ccc(F)cc1)n1cc(-c2ccncc2)cn1 (single isomer, unassigned) [Example P236]
3 | 32.5 | N#Cc1cc(-c2cnn(C(CN3CCCC3=O)c3ccc(-c4c(-n5cnnn5)ccc(Cl)c4F)c[n+]3[O-])c2)ccn1 (stereo not drawn) [Example P461]
4 | 83.4 | CN(CC(c1ccc(-c2c(-n3cnnn3)ccc(Cl)c2F)c[n+]1[O-])n1cc(-c2ccncc2)cn1)C(=O)CC(=O)N1CCCCC1 (stereo not drawn) [Example P322]
5 | 179 | [O-][n+]1cc(-c2c(-n3cnnn3)ccc(Cl)c2F)ccc1[C@H](Cn1cc(F)cn1)n1cc(-c2cncs2)cn1 [Example P493]
6 | 105 | N#Cc1cc(-c2cnn(C(Cn3ccccc3=O)c3ccc(-c4c(-n5cnnn5)ccc(Cl)c4F)c[n+]3[O-])c2)ccn1 (stereo not drawn) [Example P459]
7 | 26.2 | Cn1ncc(-c2cnn(C(Cc3ccc(F)cc3)c3ccc(-c4c(-n5cnnn5)ccc(Cl)c4F)c[n+]3[O-])c2)cc1=O (stereo not drawn) [Example P116]
8 | 670 | [O-][n+]1ccc(-c2cnn(C(Cn3cccn3)c3ccc(-c4c(-n5cnnn5)ccc(Cl)c4F)c[n+]3[O-])c2)cc1C(F)F (single isomer, unassigned) [Example P339]
9 | 582 | [O-][n+]1cc(-c2c(-n3cnnn3)ccc(Cl)c2F)ccc1C(Cc1ccc(F)cc1)n1cc(-c2nnn(C(F)F)c2Cl)cn1 (stereo not drawn) [Example P610]
10 | 28.6 | CN(CC(c1ccc(-c2c(-n3cnnn3)ccc(Cl)c2F)c[n+]1[O-])n1cc(-c2ccnc(F)c2)cn1)C(=O)c1ccccc1 (stereo not drawn) [Example P424]
11 | 185 | COCc1ccnn1CC(c1ccc(-c2c(-n3cnnn3)ccc(Cl)c2F)c[n+]1[O-])n1cc(-c2ccnc(C(F)(F)F)c2)cn1 (stereo not drawn) [Example P464]
12 | 30.1 | Cn1cncc1-c1cnn(C(Cn2cc(F)cn2)c2ccc(-c3c(-n4cnnn4)ccc(Cl)c3F)c[n+]2[O-])c1 (stereo not drawn) [Example P502]
13 | 7.5 | COC(=O)Nc1ccc(-c2cnn(C(Cc3ccccc3)c3ccc(-c4c(-n5cnnn5)ccc(Cl)c4F)c[n+]3[O-])c2)cc1 (stereo not drawn) [Example P71]
14 | 50.8 | [O-][n+]1cc(-c2cc(Cl)ccc2-n2cnnn2)ccc1C(Cc1ccc(Cl)cc1)n1cc(-c2ccncc2F)cn1 (stereo not drawn) [Example P174]
15 | 11.3 | O=C1CCC(c2ccc(-c3cnn(C(Cc4ccc(F)cc4)c4ccc(-c5c(-n6cnnn6)ccc(Cl)c5F)c[n+]4[O-])c3)cc2)N1 (stereo not drawn) [Example P121]
16 | 144 | [O-][n+]1cc(-c2c(-n3cnnn3)ccc(Cl)c2F)ccc1C(Cn1cc(-c2ccccn2)cn1)n1cc(-c2ccccn2)cn1 (single isomer, unassigned) [Example P515]
17 | 13.2 | Cc1cc(-c2cnn(C(Cn3cc(F)cn3)c3ccc(-c4c(-n5cnnn5)ccc(Cl)c4F)c[n+]3[O-])c2)ccn1 (stereo not drawn) [Example P474]

Further lines, the compound ahead of its results:

Row | Compound | IC50 [nM]
18 | NC(=O)C1CC1CC(c1ccc(-c2c(-n3cnnn3)ccc(Cl)c2F)c[n+]1[O-])n1cc(-c2ccc(N)nc2F)cn1 (single isomer, unassigned) [Example P341] | 320
19 | [O-][n+]1cc(-c2cc(Cl)ccc2-n2cnnn2)ccc1C(Cc1ccc(Cl)cc1)n1cc(-c2cc(Cl)ccc2-n2cnnn2)cn1 (stereo not drawn) [Example P152] | 895
20 | NC(=O)c1cnn(CC(c2ccc(-c3c(-n4cnnn4)ccc(Cl)c3F)c[n+]2[O-])n2cc(-c3ccnc(C(F)(F)F)c3)cn2)c1 (stereo not drawn) [Example P483] | 9.1
21 | O=C(O)c1ccc(-c2cnn(C(CCOC(F)F)c3ccc(-c4c(-n5cc(Cl)nn5)ccc(Cl)c4F)c[n+]3[O-])c2)cc1F (single isomer, unassigned) [Example P881] | 7.3
22 | Cn1ncnc1-c1cnn(C(CCOC(F)F)c2ccc(-c3c(-n4cc(OC(F)F)nn4)ccc(Cl)c3F)c[n+]2[O-])c1 (stereo not drawn) [Example P801] | 84.1
23 | N#Cc1cn(-c2ccc(Cl)c(F)c2-c2ccc([C@@H](CCOC(F)F)n3cc(-c4ncnn4C(F)F)cn3)[n+]([O-])c2)nn1 [Example P790] | 35.8
24 | CC1CC1C[C@H](c1ccc(-c2c(-n3cnnn3)ccc(Cl)c2F)c[n+]1[O-])n1cc(-c2c(F)nnn2C)cn1 (stereo partly drawn) [Example P768] | 70.5
25 | O=C(Nc1ccnc(F)c1-c1cnn(C(Cc2ccc(F)cc2)c2ccc(-c3c(-c4cnco4)ccc(Cl)c3F)c[n+]2[O-])c1)C1CC1 (stereo not drawn) [Example P148] | 350
26 | [O-][n+]1cc(-c2c(-n3cnnn3)ccc(Cl)c2F)ccc1C(C(O)c1ccccc1)n1cc(-c2ccnn2C(F)F)cn1 (single isomer, unassigned) [Example P719] | 516
27 | COCCC(c1ccc(-c2c(-n3cnnn3)ccc(Cl)c2F)c[n+]1[O-])n1cc(-n2ccnc2)cn1 (single isomer, unassigned) [Example P527] | 176
28 | Cc1nnc(CC(c2ccc(-c3c(-n4cc(C(F)(F)F)nn4)ccc(Cl)c3F)c[n+]2[O-])n2cc(-c3ccc(C(N)=O)c(F)c3)cn2)o1 (stereo not drawn) [Example P927] | 7.6
29 | CCOC(=O)C1CC1CC(c1ccc(-c2cc(Cl)ccc2-n2cnnn2)c[n+]1[O-])n1cc(-c2ccc(C(=O)O)cc2)cn1 (stereo not drawn) [Example P68] | 513
30 | [O-][n+]1cc(-c2c(-n3cnnn3)ccc(Cl)c2F)ccc1C(Cn1ccc(C2CCOCC2)n1)n1cc(-c2ccnc(C(F)(F)F)c2)cn1 (stereo not drawn) [Example P419] | 36.3
31 | Cn1ccc(C[C@H](c2ccc(-c3c(-n4cc(C(F)(F)F)nn4)ccc(Cl)c3F)c[n+]2[O-])n2cc(-c3ccc(C(=O)O)cc3)cn2)n1 [Example P855] | 3.7
32 | NC(=O)c1ccc(-c2cnn(C(Cc3ccn(C(F)F)n3)c3ccc(-c4c(C(F)F)ccc(Cl)c4F)c[n+]3[O-])c2)cc1F (single isomer, unassigned) [Example Q67] | 2.9
33 | NC(=O)c1scc(-c2cnn(C(CC3CC3)c3ccc(-c4c(-n5cnnn5)ccc(Cl)c4F)c[n+]3[O-])c2)c1F (single isomer, unassigned) [Example P953] | 13.4
34 | Cn1nccc1-c1cnn(C(CCOC(F)F)c2ccc(-c3c(-n4cnnn4)ccc(Cl)c3F)c[n+]2[O-])c1 (stereo not drawn) [Example P487] | 8.9
35 | [O-][n+]1cc(-c2c(-n3cnnn3)ccc(Cl)c2F)ccc1[C@@H](CCOC(F)F)n1cc(-c2scnc2Cl)cn1 [Example P582] | 0.9
36 | COc1cc(C(Cc2ccn(C(F)F)n2)n2cc(-c3ccc(C(N)=O)c(F)c3)cn2)[n+]([O-])cc1-c1cc(Cl)ccc1C(C)=O (single isomer, unassigned) [Example Q78] | 510

Row | Compound | IC50 [nM]
37 | [O-][n+]1cc(-c2c(-n3cnnn3)ccc(Cl)c2F)ccc1[C@@H](Cn1ccc(OC(F)F)n1)n1cc(-c2ccnc(C(F)(F)F)c2)cn1 [Example P533] | 7.7
38 | NC(=O)c1ccc(-c2cnn(C(Cc3ccn(C(F)F)n3)c3ccc(-c4c(-n5cc(C(F)(F)F)nn5)ccc(Cl)c4F)c[n+]3[O-])c2)cc1 (single isomer, unassigned) [Example P908] | 0.3
39 | [O-][n+]1cc(-c2c(-n3cnnn3)ccc(Cl)c2F)ccc1C(CC1CC1)n1cc(-c2cnco2)cn1 (stereo not drawn) [Example P497] | 169
40 | Cn1ncnc1-c1cnn([C@H](CCOC(F)F)c2ccc(-c3c(-n4cc(C5CC5)nn4)ccc(Cl)c3F)c[n+]2[O-])c1 [Example P781] | 203
41 | Cn1cc(CC(c2ccc(-c3c(C(F)F)ccc(Cl)c3F)c[n+]2[O-])n2cc(-c3cnnn3C)cn2)cn1 (single isomer, unassigned) [Example Q42] | 44.3
42 | CC(C)(C)c1cnn(CC(c2ccc(-c3c(-n4cc(C(F)(F)F)nn4)ccc(Cl)c3F)c[n+]2[O-])n2cc(-c3ccc(C(N)=O)c(F)c3)cn2)c1 (stereo not drawn) [Example P951] | 316
43 | O=C(O)c1ccc(-c2cnn(C(CC3CC3C(=O)N3CCC(c4ccccc4)C3)c3ccc(-c4cc(Cl)ccc4-n4cnnn4)c[n+]3[O-])c2)cc1 (single isomer, unassigned) [Example P101] | 625
44 | Cn1nnc(F)c1-c1cnn(C(CC2CC2)c2ccc(-c3c(-n4cnnn4)ccc(Cl)c3F)c[n+]2[O-])c1 (stereo not drawn) [Example P744] | 48.9
45 | [O-][n+]1cc(-c2c(-n3cnnn3)ccc(Cl)c2F)ccc1C(CCOC(F)F)n1cc(-c2c(Cl)ncn2C(F)F)cn1 (single isomer, unassigned) [Example P843] | ~71
46 | COc1cc(C(CC2CC2)n2cc(-c3cnn(C(C)C)c(=O)c3)cn2)[n+]([O-])cc1-c1c(-n2cnnn2)ccc(Cl)c1F (stereo not drawn) [Example P161] | 76.7
47 | [O-][n+]1cc(-c2c(-n3cc(Cl)nn3)ccc(Cl)c2F)ccc1[C@H](Cn1cc(F)cn1)n1cc(-c2c(F)cnn2C(F)F)cn1 [Example P634] | 739
48 | O=C(O)c1ccc(-c2cnn(C(Cc3ccn(C(F)F)n3)c3ccc(-c4c(C(F)F)ccc(Cl)c4F)c[n+]3[O-])c2)cc1 (single isomer, unassigned) [Example Q70] | > 274
49 | [2H]C([2H])([2H])Nc1ccc(-c2cnn(C(CCOC([2H])([2H])[2H])c3ccc(-c4c(-n5cnnn5)ccc(Cl)c4F)c[n+]3[O-])c2)cc1 (stereo not drawn) [Example P278] | 110
50 | [O-][n+]1cc(-c2c(-n3cc(Br)nn3)ccc(Cl)c2F)ccc1[C@@H](CCOC(F)F)n1cc(-c2ncnn2C(F)F)cn1 [Example P788] | 17.4
51 | [2H]C([2H])([2H])OC([2H])([2H])CC(c1ccc(-c2c(-n3cc(C(F)(F)F)nn3)ccc(Cl)c2F)c[n+]1[O-])n1cc(-c2ccc(C(N)=O)c(F)c2)cn1 (single isomer, unassigned) [Example P913] | 7.2
52 | O=C(O)c1ccc(-c2cnn(C(CCc3ccccc3)c3ccc(-c4cc(Cl)ccc4-n4cnnn4)c[n+]3[O-])c2)cc1 (stereo not drawn) [Example P65] | 721
53 | COc1cc(C(CC2CC2)n2cc(-c3ncnn3C(F)F)cn2)[n+]([O-])cc1-c1cc(Cl)ccc1-n1cnnn1 (single isomer, unassigned) [Example P917] | 3.9
54 | CN(CC(c1ccc(-c2c(-n3cnnn3)ccc(Cl)c2F)c[n+]1[O-])n1cc(-c2ccnc(C(F)(F)F)c2)cn1)C(=O)C1CCOCC1 (stereo not drawn) [Example P407] | 109
